{
  "source": "patent EP4190319A1",
  "about": "“PHARMACEUTICAL COMPOSITION COMPRISING MEMANTINE AND CITICOLINE” (Novamedica Limited Liability Company, priority 2020, dated 2022)",
  "system": "rats",
  "assay": "Morris Water Maze test of long-term memory in the model of global transient cerebral ischemia with ligation of common carotid arteries",
  "assay_type": "in vivo",
  "experimental": "The comparative study of specific pharmacological activity of the pharmaceutical composition proposed in this invention was conducted by comparison with the citicoline mono-preparation on the model of ischemic stroke in rats. For that purpose, a model of global transient cerebral ischemia with ligation of common carotid arteries was selected on the basis of the Handbook on Conducting Pre-Clinical Studies of Therapeutical Agents, ed. by A.N. Mironov. Long-term memory was evaluated with the use of the Morris Water Maze test (Morris R., \"J Neurosci Methods\", 1984, Vol. 11, No 1. - P. 47-60 [10]). Table. Effect of the preparations under study on long-term memory in rats in the Morris Water Maze test.",
  "data": [
    {"smiles": "CC12CC3CC(C)(C1)CC(N)(C3)C2", "note": "[Memantine, 3,5-dimethyladamantan-1-amine]", "values": [
      {"measurement": "Latent period of finding platform", "setting": "mg/kg (citicoline + memantine) 0+2, ischemic stroke model in rats", "result": "27.1 ± 7.8", "unit": "s"},
      {"measurement": "Latent period of finding platform", "setting": "mg/kg (citicoline + memantine) 0+10, ischemic stroke model in rats", "result": "14.6 ± 5.2", "unit": "s"},
      {"measurement": "Latent period of finding platform", "setting": "mg/kg (citicoline + memantine) 0+20, ischemic stroke model in rats", "result": "9.2 ± 1.2", "unit": "s"}
    ]},
    {"smiles": "C[N+](C)(C)CCOP(=O)(O)OP(=O)([O-])OC[C@H]1O[C@@H](n2ccc(N)nc2=O)[C@H](O)[C@@H]1O", "note": "[Citicoline, 5'-O-[hydroxy({hydroxy[2-(trimethylammonio)ethoxy]phosphoryl}oxy)phosphoryl]cytidine]", "values": [
      {"measurement": "Latent period of finding platform", "setting": "mg/kg (citicoline + memantine) 100+0, ischemic stroke model in rats", "result": "20.4 ± 7.6", "unit": "s"},
      {"measurement": "Latent period of finding platform", "setting": "mg/kg (citicoline + memantine) 500+0, ischemic stroke model in rats", "result": "13.6 ± 3.5", "unit": "s"},
      {"measurement": "Latent period of finding platform", "setting": "mg/kg (citicoline + memantine) 1,000+0, ischemic stroke model in rats", "result": "10.4 ± 3.5", "unit": "s"}
    ]}
  ]
}
